# Where two headings read alike, the source gives them in different places.
# Assays:
# [1] = Part 1 single-ascending-dose study, plasma PK; type: in vivo, human; conditions: for Tmax: human, plasma, po; for CL/F, Geometric mean (% CV) / CL/F, Mean (SD): fasted
# [2] = Part 1 single-ascending-dose study, urine PK; type: in vivo, human; conditions: within 48 hours, across all dose groups
# [3] = Part 2 effect of a low-fat meal on PK; type: in vivo, human; conditions: for AUC(0-inf) / Cmax / Tmax: human, plasma, oral; for Tmax: Median (range)
# [4] = Part 3 relative bioavailability of capsule B vs capsule A; type: in vivo, human
# [5] = Safety and tolerability assessments; type: in vivo, human
# [6] = Dose proportionality, power model on pooled exposure data; type: in vivo, human; conditions: 40- to 160-mg dose range, pooled parts 1-3
# [7] = cited from earlier work
# CYP3A4/5 = conditions: recombinant human CYPs, in vitro; cited from earlier work
# [8] = repeat dosing, animals; dermal and gastrointestinal toxicities; cited from earlier work
# [9] = in vitro assays; cited from earlier work
# [10] = cited from earlier work; remark: listed apart in the source
# [11] = preclinical studies; cited from earlier work
# EGFR = conditions: NSCLC with EGFR exon 20 insertion mutations; cited from earlier work
# [12] = part 1, 120 mg single oral dose
# [13] = part 1, 160 mg single oral dose
# [14] = 120 mg, Geometric mean (% CV), part 2, 120 mg, fasted
# [15] = 120 mg, Geometric mean (% CV), part 2, 120 mg, low-fat meal
# [16] = 120 mg, Mean (SD), part 2, 120 mg, fasted
# [17] = 120 mg, Mean (SD), part 2, 120 mg, low-fat meal
# [18] = 160 mg, Geometric mean (% CV), part 2, 160 mg, fasted
# [19] = 160 mg, Geometric mean (% CV), part 2, 160 mg, low-fat meal
# [20] = 160 mg, Mean (SD), part 2, 160 mg, fasted
# [21] = 160 mg, Mean (SD), part 2, 160 mg, low-fat meal
# [22] = part 2, 120 mg, low-fat meal (test) vs fasted (reference)
# [23] = part 3, 160 mg, fasted, capsule B (test) vs capsule A (reference)
# [24] = AEs in ≥10% of volunteers in any part
# [25] = part 1, overall (N = 40, includes pooled placebo)
# [26] = part 2, 120 mg, low-fat meal (n = 6)
# [27] = part 2, 160 mg, fasted (n = 10)
# [28] = part 2, 160 mg, low-fat meal (n = 10)
# [29] = part 3, mobocertinib 160 mg, overall (N = 13)
smiles,measurement,setting,value
C=CC(=O)Nc1cc(Nc2ncc(C(=O)OC(C)C)c(-c3cn(C)c4ccccc34)n2)c(OC)cc1N(C)CCN(C)C [Mobocertinib],Tmax,[1],4 to 6 h
same,Tmax,[1]; 80 mg,4 h
same,Tmax,[1]; 120 mg,6 h
same,Tmax,[1]; 160 mg,6 h
same,Time for which analyte was quantifiable in plasma,"[1]; part 1, 20 mg mobocertinib cohort",up to 72 hours
same,"CL/F, Geometric mean (% CV)","[1]; part 1, 20 mg single oral dose",314 (11.9) L/h
same,"CL/F, Mean (SD)","[1]; part 1, 20 mg single oral dose",316 (37.5) L/h
same,Time for which analyte was quantifiable in plasma,"[1]; part 1, 40 mg mobocertinib cohort",≤ 96 h
same,"CL/F, Geometric mean (% CV)","[1]; part 1, 40 mg single oral dose",249 (49.5) L/h
same,"CL/F, Mean (SD)","[1]; part 1, 40 mg single oral dose",283 (140.1) L/h
same,Time for which analyte was quantifiable in plasma,"[1]; part 1, 80 mg mobocertinib cohort",≤ 96 h
same,"CL/F, Geometric mean (% CV)","[1]; part 1, 80 mg single oral dose",312 (72.0) L/h
same,"CL/F, Mean (SD)","[1]; part 1, 80 mg single oral dose",378 (272.2) L/h
same,Time for which analyte was quantifiable in plasma,"[1]; part 1, 120 mg mobocertinib cohort",≤ 96 h
same,"CL/F, Geometric mean (% CV)",[1]; [12],263 (56.9) L/h
same,"CL/F, Mean (SD)",[1]; [12],292 (166.2) L/h
same,Time for which analyte was quantifiable in plasma,"[1]; part 1, 160 mg mobocertinib cohort",≤ 168 h
same,"CL/F, Geometric mean (% CV)",[1]; [13],157 (33.2) L/h
same,"CL/F, Mean (SD)",[1]; [13],168 (55.7) L/h
same,Administered mobocertinib dose excreted unchanged in urine,[2],< 1.2%
same,AUC(0-inf),[3]; [14],526 ng·h/mL
same,AUC(0-inf),[3]; [15],534 ng·h/mL
same,AUC(0-inf),[3]; [16],587 ng·h/mL
same,AUC(0-inf),[3]; [17],578 ng·h/mL
same,Cmax,[3]; [14],31.2 ng/mL
same,Cmax,[3]; [15],27.5 ng/mL
same,Cmax,[3]; [16],35.5 ng/mL
same,Cmax,[3]; [17],29.5 ng/mL
same,Tmax,"[3]; 120 mg, part 2, 120 mg, fasted",4 h
same,Tmax,"[3]; 120 mg, part 2, 120 mg, low-fat meal",6 h
same,AUC(0-inf),[3]; [18],743 ng·h/mL
same,AUC(0-inf),[3]; [19],706 ng·h/mL
same,AUC(0-inf),[3]; [20],862 ng·h/mL
same,AUC(0-inf),[3]; [21],768 ng·h/mL
same,Cmax,[3]; [18],41 ng/mL
same,Cmax,[3]; [19],39.5 ng/mL
same,Cmax,[3]; [20],45.8 ng/mL
same,Cmax,[3]; [21],43 ng/mL
same,Tmax,"[3]; 160 mg, part 2, 160 mg, fasted",6 h
same,Tmax,"[3]; 160 mg, part 2, 160 mg, low-fat meal",6 h
same,Effect of a low-fat meal on PK,[3]; mobocertinib and its active metabolites,did not affect the PK
same,"AUC∞, Geometric LS Mean Ratio (90%CI)",[3]; [22],1.02 (0.90‐1.15)
same,"Cmax, Geometric LS Mean Ratio (90%CI)",[3]; [22],0.88 (0.71‐1.09)
same,"Cmax, Geometric LS Mean Ratio (90%CI)","[3]; part 2, 160 mg, low-fat meal (test) vs fasted (reference)",0.96
same,Time for which mean plasma concentrations were quantifiable,"[3]; part 2, 120 and 160 mg, low-fat meal and fasted",up to 168 hours
same,Tmax,"[4]; human, plasma, oral, 160 mg",5 to 6 h
same,"AUC∞, LS Geometric Mean Ratio (90%CI)",[4]; [23],0.96
same,"Cmax, LS Geometric Mean Ratio (90%CI)",[4]; [23],0.93
same,Diarrhea,[5]; [24],10.0%
same,Flatulence,[5]; [24],12.5%
same,Soft feces,[5]; [24],12.5%
same,Serious AEs,[5]; all parts,No serious AEs were reported
same,Volunteers who experienced AEs,[5]; part 1 (includes pooled placebo),48%
same,AE leading to discontinuation,"[5]; part 1, 20 mg (n = 6)",0 n (%)
same,Any AE,"[5]; part 1, 20 mg (n = 6)",2 (33) n (%)
same,Grade 1 AE,"[5]; part 1, 20 mg (n = 6)",2 (33) n (%)
same,Grade 2 AE,"[5]; part 1, 20 mg (n = 6)",0 n (%)
same,Grade ≥3 AE,"[5]; part 1, 20 mg (n = 6)",0 n (%)
same,Treatment-related AE,"[5]; part 1, 20 mg (n = 6)",1 (17) n (%)
same,AE leading to discontinuation,"[5]; part 1, 40 mg (n = 6)",0 n (%)
same,Any AE,"[5]; part 1, 40 mg (n = 6)",3 (50) n (%)
same,Grade 1 AE,"[5]; part 1, 40 mg (n = 6)",2 (33) n (%)
same,Grade 2 AE,"[5]; part 1, 40 mg (n = 6)",1 (17) n (%)
same,Grade ≥3 AE,"[5]; part 1, 40 mg (n = 6)",0 n (%)
same,Treatment-related AE,"[5]; part 1, 40 mg (n = 6)",0 n (%)
same,AE leading to discontinuation,"[5]; part 1, 80 mg (n = 6)",0 n (%)
same,Any AE,"[5]; part 1, 80 mg (n = 6)",4 (67) n (%)
same,Grade 1 AE,"[5]; part 1, 80 mg (n = 6)",3 (50) n (%)
same,Grade 2 AE,"[5]; part 1, 80 mg (n = 6)",1 (17) n (%)
same,Grade ≥3 AE,"[5]; part 1, 80 mg (n = 6)",0 n (%)
same,Treatment-related AE,"[5]; part 1, 80 mg (n = 6)",3 (50) n (%)
same,AE leading to discontinuation,"[5]; part 1, 120 mg (n = 6)",0 n (%)
same,Any AE,"[5]; part 1, 120 mg (n = 6)",3 (50) n (%)
same,Grade 1 AE,"[5]; part 1, 120 mg (n = 6)",1 (17) n (%)
same,Grade 2 AE,"[5]; part 1, 120 mg (n = 6)",2 (33) n (%)
same,Grade ≥3 AE,"[5]; part 1, 120 mg (n = 6)",0 n (%)
same,Treatment-related AE,"[5]; part 1, 120 mg (n = 6)",0 n (%)
same,AE leading to discontinuation,"[5]; part 1, 160 mg (n = 6)",0 n (%)
same,Any AE,"[5]; part 1, 160 mg (n = 6)",5 (83) n (%)
same,Grade 1 AE,"[5]; part 1, 160 mg (n = 6)",4 (67) n (%)
same,Grade 2 AE,"[5]; part 1, 160 mg (n = 6)",1 (17) n (%)
same,Grade ≥3 AE,"[5]; part 1, 160 mg (n = 6)",0 n (%)
same,Treatment-related AE,"[5]; part 1, 160 mg (n = 6)",3 (50) n (%)
same,Decrease in serum creatine kinase,"[5]; part 1, 20-mg dose group",–26.8 U/L
same,Decrease in serum creatine kinase,"[5]; part 1, 160-mg group",–69.0 U/L
same,AE leading to discontinuation,[5]; [25],0 n (%)
same,Any AE,[5]; [25],19 (48) n (%)
same,Grade 1 AE,[5]; [25],14 (35) n (%)
same,Grade 2 AE,[5]; [25],5 (13) n (%)
same,Grade ≥3 AE,[5]; [25],0 n (%)
same,Treatment-related AE,[5]; [25],9 (23) n (%)
same,Volunteers who experienced AEs,[5]; part 2,75%
same,AE leading to discontinuation,"[5]; part 2, 120 mg, fasted (n = 6)",0 n (%)
same,Any AE,"[5]; part 2, 120 mg, fasted (n = 6)",3 (50) n (%)
same,Grade 1 AE,"[5]; part 2, 120 mg, fasted (n = 6)",2 (33) n (%)
same,Grade 2 AE,"[5]; part 2, 120 mg, fasted (n = 6)",1 (17) n (%)
same,Grade ≥3 AE,"[5]; part 2, 120 mg, fasted (n = 6)",0 n (%)
same,Treatment-related AE,"[5]; part 2, 120 mg, fasted (n = 6)",3 (50) n (%)
same,"Treatment-related AE, Grade ≥3","[5]; part 2, 120 mg, fasted (n = 6)",0 n (%)
same,AE leading to discontinuation,[5]; [26],0 n (%)
same,Any AE,[5]; [26],3 (50) n (%)
same,Grade 1 AE,[5]; [26],2 (33) n (%)
same,Grade 2 AE,[5]; [26],0 n (%)
same,Grade ≥3 AE,[5]; [26],1 (17) n (%)
same,Treatment-related AE,[5]; [26],2 (33) n (%)
same,"Treatment-related AE, Grade ≥3",[5]; [26],0 n (%)
same,AE leading to discontinuation,[5]; [27],0 n (%)
same,Any AE,[5]; [27],5 (50) n (%)
same,Grade 1 AE,[5]; [27],5 (50) n (%)
same,Grade 2 AE,[5]; [27],0 n (%)
same,Grade ≥3 AE,[5]; [27],0 n (%)
same,Treatment-related AE,[5]; [27],5 (50) n (%)
same,"Treatment-related AE, Grade ≥3",[5]; [27],0 n (%)
same,AE leading to discontinuation,[5]; [28],0 n (%)
same,Any AE,[5]; [28],7 (70) n (%)
same,Grade 1 AE,[5]; [28],7 (70) n (%)
same,Grade 2 AE,[5]; [28],0 n (%)
same,Grade ≥3 AE,[5]; [28],0 n (%)
same,Treatment-related AE,[5]; [28],4 (40) n (%)
same,"Treatment-related AE, Grade ≥3",[5]; [28],0 n (%)
same,AE leading to discontinuation,"[5]; part 2, overall (N = 16)",0 n (%)
same,Any AE,"[5]; part 2, overall (N = 16)",12 (75) n (%)
same,Grade 1 AE,"[5]; part 2, overall (N = 16)",11 (69) n (%)
same,Grade 2 AE,"[5]; part 2, overall (N = 16)",0 n (%)
same,Grade ≥3 AE,"[5]; part 2, overall (N = 16)",1 (6) n (%)
same,Treatment-related AE,"[5]; part 2, overall (N = 16)",8 (50) n (%)
same,"Treatment-related AE, Grade ≥3","[5]; part 2, overall (N = 16)",0 n (%)
same,Volunteers who experienced AEs,[5]; part 3,46%
same,AE leading to discontinuation,[5]; [29],1 (8) n (%)
same,Grade 1 AE,[5]; [29],5 (39) n (%)
same,Grade 2 AE,[5]; [29],1 (8) n (%)
same,Grade ≥3 AE,[5]; [29],0 n (%)
same,Treatment-related AE,[5]; [29],2 (15) n (%)
same,Volunteers with AEs,[5]; [29],6 (46) n (%)
same,Single doses tolerated in healthy adult volunteers,[5]; single oral dose,up to 160 mg
same,Slope (95% CI) of regression of log mobocertinib AUC∞ vs log dose,[6],1.20 (0.93‐1.46)
same,"Accumulation ratio of AUC0-24, cycle 2 day 1 over cycle 1 day 1","[7]; 160 mg once daily, repeat dosing, ref NCT02716116",1.03
same,Maximum tolerated dose,"[7]; once daily, patients",160 mg
same,Percent contribution of CYP3A4/5 to metabolism,CYP3A4/5,> 90%
same,Maximum tolerated dose,[8],10 mg/kg
same,Genotoxicity,[9],no evidence of genotoxicity
same,Permeability,[10],high permeability
same,Solubility,[10],high solubility
same,Route of elimination,[11],eliminated almost completely through feces
C#Cc1cccc(Nc2ncnc3cc(OCCOC)c(OCCOC)cc23)c1 [erlotinib],Median progression-free survival,EGFR,≈ 2 months
C=CC(=O)Nc1cc(Nc2nccc(-c3cn(C)c4ccccc34)n2)c(OC)cc1N(C)CCN(C)C [osimertinib],Median progression-free survival,EGFR,≈ 2 months

# Reference: article PMC8453943 (Clinical Pharmacology in Drug Development, 2021)
